System: CD19 CAR T cells from bulk T cells (PBMC), TCM, naïve/memory T cells
Test: Generation of memory CD19 CAR T cells from different T cell subsets
Type: cell-based, human
Excerpt: FIGS. 6A-6B: Akt inhibition promotes the generation of memory CD19 CAR T cells from different T cell subsets. […] Resultant CD19 CAR T cells were stained with biotinylated Erbitux (cetuximab), followed by streptavidin-PE for CAR detection and antibodies against CD62L. Percentages of CAR+CD62L+ cells are depicted on the basis of the gating of isotype-stained cells. (B) Percentages of CD62L+CD28+ T cells after gating on CAR+CD8+ from six lines of CD19 CAR T cells derived from two different donors are presented.
Resultant CD19CAR T cells were stained with biotinylated Erbitux (cetuximab), followed by streptavidin-PE for CAR detection and antibodies against CD62L. Cells expressing CD62 represent TCM cells or TSCM cells.
Samples from two donors were used to prepare PBMC, TCM, and TN/TCM/TSCM cell populations.

O=c1[nH]c2ccccc2n1C1CCN(Cc2ccc(-c3nc4cc5[nH]cnc5cc4nc3-c3ccccc3)cc2)CC1 [Akt inhibitor VIII, 1,3-dihydro-1-[1-[[4-(6-phenyl-1H-imidazo[4,5-g]quinoxalin-7-yl)phenyl]methyl]-4-piperidinyl]-2H-benzimidazol-2-one]
percentage of CD62L+ expressing CAR T cells (1 μM Akt inhibitor VIII, 17-21 days, bulk T cells, TCM cells or naïve/memory T cells, FIG. 6A): increases the percentage of CD62L+ expressing CAR T cells | number of CD62L+/CD28+/CAR+ T cells (six cell populations from two donors, 17-21 days with or without Akt inhibitor VIII, FIG. 6B): increased the number of CD62L+/CD28+/CAR+ T cells

From patent US20250171518A1, “METHODS FOR PREPARING CELLS FOR ADOPTIVE T CELL THERAPY” (City of Hope, priority 2015, published 2025)
